Counter-ions that a name gives are not always drawn.

The values that follow come from US20090221653A1, “7-(2-amino-1-hydroxy-ethyl)-4-hydroxybenzothiazol-2(3H)-one-derivatives as beta2 adrenoreceptor agonists” (AstraZeneca AB, priority 2005, published 2009).

One assay has as its target T1, Adrenergic β2 (Homo sapiens, UniProt P07550).
T1 construct: endogenous in cells; host or cells: H292 cells
The experiment in a line: Alternative Adrenergic β2 Mediated cAMP Production in H292 cells (AlphaScreen cAMP detection). In kind it is cell-based. The conditions noted are these: for EC50: cAMP, test compounds incubated 60 minutes, 300 μM rolipram, read-out: β2 pEC50 (converted); for β2 Int Act: fraction relative to the maximum activity determined for formoterol, 60 minutes incubation. The procedure:
H292 cells were grown in 225 cm2 flasks incubator at 37° C., 5% CO2 in RPMI medium containing, 10% (v/v) FBS (foetal bovine serum) and 2 mM L-glutamine.
Adherent H292 cells were removed from tissue culture flasks by treatment with Accutase™ cell detachment solution for 15 minutes. Flasks were incubated for 15 minutes in a humidified incubator at 37° C., 5% CO2. Detached cells were re-suspended in RPMI media (containing 10% (v/v) FBS and 2 mM L-glutamine) at 0.05×10^6 cells per mL. 5000 cells in 100 μL were added to each well of a tissue-culture-treated 96-well plate and the cells incubated overnight in a humidified incubator at 37° C., 5% CO2. The culture media was removed and cells were washed twice with 100 μL assay buffer and replaced with 50 μL assay buffer (HBSS solution containing 10 mM HEPES pH7.4 and 5 mM glucose). […] Cells were incubated with rolipram for 10 minutes after which time test compounds were added and the cells were incubated for 60 minutes at room temperature. […] The reaction was stopped by removing supernatants, washing once with 100 μL assay buffer and replacing with 50 μL lysis buffer. The cell monolayer was frozen at −80° C. for 30 minutes (or overnight).
The concentration of cAMP (cyclic adenosine monophosphate) in the cell lysate was determined using AlphaScreen™ methodology. The frozen cell plate was thawed for 20 minutes on a plate shaker then 10 μL of the cell lysate was transferred to a 96-well white plate. 40 μL of mixed AlphaScreen™ detection beads pre-incubated with biotinylated cAMP, was added to each well and the plate incubated at room temperature for 10 hours in the dark. The AlphaScreen™ signal was measured using an EnVision spectrophotometer (Perkin-Elmer Inc.) with the recommended manufacturer's settings. cAMP concentrations were determined by reference to a calibration curve determined in the same experiment using standard cAMP concentrations. Concentration response curves for agonists were constructed and data was fitted to a four parameter logistic equation to determine both the pEC50 and Intrinsic Activity.
(In general: Alpha assays give light when donor and acceptor beads are brought close together.)

Assay [1] addresses T2, recombinant human Dopamine Subtype D2s receptors (Homo sapiens, UniProt P14416).
T2 construct: purchased Perkin Elmer
In words: Dopamine D2 selectivity assay, inhibition of [3H]-spiperone binding. The conditions noted are these: membranes, [3H]-spiperone 0.16 nM; read-out: D2 bind pIC50 (converted). The procedure: Membranes containing recombinant human Dopamine Subtype D2s receptors were obtained from Perkin Elmer. These were diluted in Assay Buffer ([…] HEPES, 1 mM EDTA, 120 mM NaCl, 0.1% gelatin, pH 7.4) to provide a final concentration of membranes that gave a clear window between maximum and minimum specific binding.
Assays were performed in U-bottomed 96-well polypropylene plates. […] For each assay plate 8 replicates were obtained for [^3H]-spiperone binding in the presence of 30 μL vehicle (10% (v/v) DMSO in Assay Buffer; defining maximum binding) or 30 μL Haloperidol (10 μM final concentration; defining non-specific binding (NSB)). Membranes were then added to achieve a final volume of 300 μL. The plates were incubated for 2 hours at room temperature and then filtered onto PEI coated GF/B filter plates, pre-soaked for 1 hour in Assay Buffer, using a 96-well plate Tomtec cell harvester. Five washes with 250 μL wash buffer (50 mM HEPES, 1 mM EDTA, 120 mM NaCl, pH 7.4) were performed at 4° C. to remove unbound radioactivity. The plates were dried then sealed from underneath using Packard plate sealers and MicroScint-O (50 μL) was added to each well. The plates were sealed (TopSeal A) and filter-bound radioactivity was measured with a scintillation counter (TopCount, Packard BioScience) using a 3-minute counting protocol. Total specific binding (B0) was determined by subtracting the mean NSB from the mean maximum binding. NSB values were also subtracted from values from all other wells.

Assay [2] deals with T3, recombinant human adrenergic beta 1 receptors (Homo sapiens, UniProt P08588).
T3 construct: purchased Euroscreen
T3 sequence (P08588 whole entry): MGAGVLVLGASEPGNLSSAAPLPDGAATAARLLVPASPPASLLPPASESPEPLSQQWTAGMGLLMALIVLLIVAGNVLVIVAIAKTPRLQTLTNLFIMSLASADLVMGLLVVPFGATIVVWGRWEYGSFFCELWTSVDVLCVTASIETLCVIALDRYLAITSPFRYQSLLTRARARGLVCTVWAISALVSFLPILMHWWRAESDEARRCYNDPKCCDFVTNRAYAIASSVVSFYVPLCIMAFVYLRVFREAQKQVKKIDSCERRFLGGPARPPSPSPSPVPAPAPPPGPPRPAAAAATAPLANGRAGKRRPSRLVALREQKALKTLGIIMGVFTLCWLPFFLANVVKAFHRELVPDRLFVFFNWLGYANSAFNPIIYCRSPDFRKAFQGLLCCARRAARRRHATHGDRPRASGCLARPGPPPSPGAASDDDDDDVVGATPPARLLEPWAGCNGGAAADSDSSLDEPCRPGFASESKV
The experiment in a line: Adrenergic β1 selectivity assay, inhibition of [125I]-Iodocyanopindolol binding. The conditions noted are these: membranes, [125I]-Iodocyanopindolol; read-out: β1 bind pIC50 (converted). Here is the method:
Membranes containing recombinant human adrenergic beta 1 receptors were obtained from Euroscreen. These were diluted in Assay Buffer (50 mM HEPES, 1 mM EDTA, 120 mM NaCl, 0.1% gelatin, pH 7.4) to provide a final concentration of membranes that gave a clear window between maximum and minimum specific binding.
Assays were performed in U-bottomed 96-well polypropylene plates. […] Membranes were then added to achieve a final volume of 100 μL. The plates were incubated for 2 hours at room temperature and then filtered onto PEI coated GF/B filter plates, pre-soaked for 1 hour in Assay Buffer, using a 96-well plate Tomtec cell harvester. Five washes with 250 μL wash buffer (50 mM HEPES, 1 mM EDTA, 120 mM NaCl, pH 7.4) were performed at 4° C. to remove unbound radioactivity. The plates were dried then sealed from underneath using Packard plate sealers and MicroScint-O (50 μL) was added to each well. The plates were sealed (TopSeal A) and filter-bound radioactivity was measured with a scintillation counter (TopCount, Packard BioScience) using a 3-minute counting protocol.
(§1) Total specific binding (B0) was determined by subtracting the mean NSB from the mean maximum binding. NSB values were also subtracted from values from all other wells.

For assay [3], the target named is T4, recombinant human α1D receptor (Homo sapiens, UniProt P25100).
T4 construct: expressed in transfected cells; host or cells: HEK293
T4 sequence (P25100 1-572): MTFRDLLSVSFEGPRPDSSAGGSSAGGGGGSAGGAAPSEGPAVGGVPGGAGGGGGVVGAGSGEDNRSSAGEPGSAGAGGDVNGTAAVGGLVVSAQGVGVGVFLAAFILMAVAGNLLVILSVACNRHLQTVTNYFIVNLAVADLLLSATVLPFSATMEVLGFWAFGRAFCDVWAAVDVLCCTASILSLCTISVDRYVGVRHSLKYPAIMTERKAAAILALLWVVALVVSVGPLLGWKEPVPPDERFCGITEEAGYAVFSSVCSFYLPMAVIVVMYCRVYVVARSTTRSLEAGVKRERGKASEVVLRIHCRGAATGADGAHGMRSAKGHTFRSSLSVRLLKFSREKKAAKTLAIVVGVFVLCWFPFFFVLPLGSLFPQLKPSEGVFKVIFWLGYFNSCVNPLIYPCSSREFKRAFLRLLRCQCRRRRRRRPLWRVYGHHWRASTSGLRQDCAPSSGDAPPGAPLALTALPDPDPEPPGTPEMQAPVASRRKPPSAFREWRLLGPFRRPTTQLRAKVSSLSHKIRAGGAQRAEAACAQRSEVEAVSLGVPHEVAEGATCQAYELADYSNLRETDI
In words: Adrenergic α1D selectivity assay, inhibition of [3H]-prazosin binding. The conditions noted are these: HEK293 membranes, [3H]-prazosin 0.3 nM; read-out: α1 bind pIC50 (converted). The procedure: Membranes were prepared from human embryonic kidney 293 (HEK293) cells expressing recombinant human α1D receptor. These were diluted in Assay Buffer (50 mM HEPES, 1 mM EDTA, 0.1% gelatin, pH 7.4) to provide a final concentration of membranes that gave a clear window between maximum and minimum specific binding.
Assays were performed in U-bottomed 96-well polypropylene plates. 10 μL [^3H]-prazosin (0.3 nM final concentration) and 10 μL of test compound (10× final concentration) were added to each test well. For each assay plate 8 replicates were obtained for [^3H]-prazosin binding in the presence of 10 μL vehicle (10% (v/v) DMSO in Assay Buffer; defining maximum binding) or 10 μL BMY7378 (10 μM final concentration; defining non-specific binding (NSB)). Membranes were then added to achieve a final volume of 100 μL. The plates were incubated for 2 hours at room temperature and then filtered onto PEI coated GF/B filter plates, pre-soaked for 1 hour in Assay Buffer, using a 96-well plate Tomtec cell harvester. Five washes with 250 μL wash buffer (50 mM HEPES, 1 mM EDTA, pH 7.4) were performed at 4° C. to remove unbound radioactivity. The plates were dried then sealed from underneath using Packard plate sealers and MicroScint-O (50 μL) was added to each well. The plates were sealed (TopSeal A) and filter-bound radioactivity was measured with a scintillation counter (TopCount, Packard BioScience) using a 3-minute counting protocol.
as §1

T1 sequence (P07550 whole entry): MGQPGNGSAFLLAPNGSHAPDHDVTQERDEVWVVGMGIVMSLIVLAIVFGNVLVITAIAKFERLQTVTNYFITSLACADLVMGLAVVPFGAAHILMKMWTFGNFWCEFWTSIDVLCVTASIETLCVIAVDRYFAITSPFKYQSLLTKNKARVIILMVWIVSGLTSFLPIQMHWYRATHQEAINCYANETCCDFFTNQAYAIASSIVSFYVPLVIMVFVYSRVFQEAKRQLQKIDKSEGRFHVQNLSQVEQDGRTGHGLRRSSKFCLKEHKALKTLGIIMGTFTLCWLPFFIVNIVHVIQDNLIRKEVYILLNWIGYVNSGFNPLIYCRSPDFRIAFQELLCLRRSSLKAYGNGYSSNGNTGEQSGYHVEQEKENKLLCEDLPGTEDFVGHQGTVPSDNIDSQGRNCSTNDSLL
T2 sequence (P14416 1-414 isoform P14416-2): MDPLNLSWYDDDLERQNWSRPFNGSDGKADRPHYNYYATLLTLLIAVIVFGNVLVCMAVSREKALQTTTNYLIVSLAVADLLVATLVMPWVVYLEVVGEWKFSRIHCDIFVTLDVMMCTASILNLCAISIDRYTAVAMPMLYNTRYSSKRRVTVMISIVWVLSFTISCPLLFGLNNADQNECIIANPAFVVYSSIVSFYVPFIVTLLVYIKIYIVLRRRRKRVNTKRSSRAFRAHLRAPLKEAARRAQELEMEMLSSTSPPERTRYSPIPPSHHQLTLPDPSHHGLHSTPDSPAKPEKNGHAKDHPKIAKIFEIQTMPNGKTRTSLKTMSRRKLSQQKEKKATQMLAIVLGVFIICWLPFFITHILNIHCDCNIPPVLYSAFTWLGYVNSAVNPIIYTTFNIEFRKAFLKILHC

Regarding `O=c1[nH]c2c(O)ccc([C@@H](O)CNCCCSCCOCCc3cccc4ccccc34)c2s1` [Example 1, 4-Hydroxy-7-((1R)-1-hydroxy-2-{[3-({2-[2-(1-naphthyl)ethoxy]ethyl}thio)propyl]-amino}ethyl)-1,3-benzothiazol-2(3H)-one trifluoroacetate], at Adrenergic β2, the EC50 is 0.1 nM and the “β2 Int Act” value is given as 1. In assay [1], the IC50 is 200 nM.

Consider `O=c1[nH]c2c(O)ccc([C@@H](O)CNCCCOCCOCCc3ccccc3)c2s1` [Example 3, 4-Hydroxy-7-[(1R)-1-hydroxy-2-({3-[2-(2-phenylethoxy)ethoxy]propyl}amino)ethyl]-1,3-benzothiazol-2(3H)-one trifluoroacetate], for which, at Adrenergic β2, the EC50 was 0.126 nM and the “β2 Int Act” value came to 0.9.

For the compound `Cl.O=c1[nH]c2c(O)ccc([C@@H](O)CNCCCSCCCOCCc3ccccc3)c2s1` [Example 6, 4-Hydroxy-7-{(1R)-1-hydroxy-2-[(3-{[3-(2-phenylethoxy)propyl]thio}propyl)amino]ethyl}-1,3-benzothiazol-2(3H)-one hydrochloride], the “β2 Int Act” value on Adrenergic β2 is reported as 0.9. The IC50 in assay [2] is 3.98 nM.

Regarding `O=c1[nH]c2c(O)ccc([C@@H](O)CNCCCOCCOCCc3cccc4ccccc34)c2s1` [Example 7, 4-Hydroxy-7-{(1R)-1-hydroxy-2-[(3-{2-[2-(1-naphthyl)ethoxy]ethoxy}propyl)amino]ethyl}-1,3-benzothiazol-2(3H)-one], at Adrenergic β2, the “β2 Int Act” value amounted to 1.1. Moreover, in assay [3], the IC50 was 631 nM.

In the case of `Cl.O=c1[nH]c2c(O)ccc([C@@H](O)CNCCCSCCOCCc3ccccc3)c2s1` [Example 9, 4-Hydroxy-7-{(1R)-1-hydroxy-2-[(3-{[2-(2-phenylethoxy)ethyl]thio}-propyl)amino]ethyl}-1,3-benzothiazol-2(3H)-one hydrochloride], at Adrenergic β2, the “β2 Int Act” value was 1.

Regarding `Cl.O=c1[nH]c2c(O)ccc([C@@H](O)CNCCSCCCNCCc3ccccc3)c2s1` [Example 11, 4-Hydroxy-7-((1R)-1-hydroxy-2-{[2-({3-[(2-phenylethyl)amino]propyl}thio)ethyl]amino}ethyl)-1,3-benzothiazol-2(3H)-one hydrochloride], the “β2 Int Act” value on Adrenergic β2 is 0.9. For the same compound, the results for the IC50 in assay [3] and in assay [2] were 126 nM and 251 nM, respectively.

Turning to `CCc1ccc(CCNCCCSCCNC[C@H](O)c2ccc(O)c3[nH]c(=O)sc23)cc1` [Example 14, 7-[(1R)-2-({2-[(3-{[2-(4-Ethylphenyl)ethyl]amino}propyl)thio]ethyl}amino)-1-hydroxyethyl]-4-hydroxy-1,3-benzothiazol-2(3H)-one], at Adrenergic β2, the EC50 was 3.98 nM and the “β2 Int Act” value was found to be 0.9. Moreover, the IC50 in assay [3] is 100 nM. In addition, the IC50 in assay [2] is 50.1 nM.

On to `CCOc1ccc(CCNCCCSCCNC[C@H](O)c2ccc(O)c3[nH]c(=O)sc23)cc1` [Example 16, 7-[(1R)-2-({2-[(3-{[2-(4-Ethoxyphenyl)ethyl]amino}propyl)thio]ethyl}amino)-1-hydroxyethyl]-4-hydroxy-1,3-benzothiazol-2(3H)-one], for which the “β2 Int Act” value at Adrenergic β2 is 0.7. In assay [3], the IC50 was 1580 nM.

Consider `O=c1[nH]c2c(O)ccc([C@@H](O)CNCCSCCCNCCc3cccc(C(F)(F)F)c3)c2s1` [Example 18, 4-Hydroxy-7-{(1R)-1-hydroxy-2-[(2-{[3-({2-[3-(trifluoromethyl)phenyl]ethyl}amino)propyl]thio}ethyl)amino]ethyl}-1,3-benzothiazol-2(3H)-one], for which, at Adrenergic β2, the EC50 is 3.16 nM and the “β2 Int Act” value is listed as 0.8. In assay [3], the IC50 is 251 nM. Also, the IC50 in assay [2] is 100 nM.

As for `O=c1[nH]c2c(O)ccc([C@@H](O)CNCCSCCCNCCc3ccccc3Cl)c2s1` [Example 20, 7-[(1R)-2-({2-[(3-{[2-(2-Chlorophenyl)ethyl]amino}propyl)thio]ethyl}amino)-1-hydroxyethyl]-4-hydroxy-1,3-benzothiazol-2(3H)-one], the “β2 Int Act” value at Adrenergic β2 worked out at 0.8. Further, the IC50 in assay [3] is 25.1 nM.

`O=c1[nH]c2c(O)ccc([C@@H](O)CNCCOCCCNCCc3cccc(Cl)c3)c2s1` [Example 36, 7-((1R)-2-{[2-(3-{[2-(3-Chlorophenyl)ethyl]amino}propoxy)ethyl]amino}-1-hydroxyethyl)-4-hydroxy-1,3-benzothiazol-2(3H)-one]: at Adrenergic β2, the “β2 Int Act” value is listed as 1. Besides, the IC50 in assay [2] was 100 nM.

`O=c1[nH]c2c(O)ccc([C@@H](O)CNCCSCCCNCCc3cccc(Cl)c3)c2s1` [Example 40, 7-[(1R)-2-({2-[(3-{[2-(3-Chlorophenyl)ethyl]amino}propyl)thio]ethyl}amino)-1-hydroxyethyl]-4-hydroxy-1,3-benzothiazol-2(3H)-one dihydrochloride]: at Adrenergic β2, the EC50 is 1 nM and the “β2 Int Act” value was 0.8.
